# Results reported in US4096263A, “1,2,3,4-Tetrahydroisoquinolines and the preparation thereof” (Fujisawa Pharmaceutical Co., Ltd., priority 1975, dated 1978).
# Structures can show the parent of a compound that is named as a salt.
# Tested on: jejunum of the dog
# Assay: Intestinal Motility in Dogs (balloon at the jejunum, inhibition of motility in anesthetized mongrel dogs)
# Type: in vivo
# Method: Intestinal Motility in Dogs Method: Mongrel dogs weighing 8 to 16 kg which were withheld from any food and water for 24 hours were anesthetized with a combination of urethane (1.5 g/kg) and morphine (15 mg/kg). A balloon was placed at the jejunum of the dog, compressed at a pressure of 10 cm. H2 O, and connected to a strain gauge. Changes in the motility were mainly recorded in terms of amplitude, but taking account of the number of movements. The maximum change of all the determinations, served as the calculation of the 50% inhibition dose (ED50). The time required for 80% recovery was considered as a duration of action.
smiles,measurement,setting,value
"Cn1nnnc1NCC1NCCc2cc(O)c(O)cc21 (centres unmarked) [Test Compound, 1-(1-Methyl-1H-tetrazol-5-yl)aminomethyl-6,7-dihydroxy-1,2,3,4-tetrahydroisoquinoline hydrochloride trihemihydrate]",ED50,"Canis lupus familiaris, anesthetized mongrel dogs (urethane 1.5 g/kg and morphine 15 mg/kg), jejunal balloon at 10 cm. H2O, maximum change of motility, mainly amplitude, route not stated, read-out: ED50 (50% inhibition dose)",1 µg/kg
same,Duration of Action,"time required for 80% recovery, anesthetized mongrel dogs, jejunal balloon, dose and route not stated",25 min
